Data as given in patent US20210251228A1, “METHODS FOR REPELLING DROSOPHILA SPECIES USING 2-PENTYLFURAN” (The United States of America, as represented by the …, priority 2020, published 2021).

Legend:
[1] = system: Drosophila melanogaster; assay: Two-choice bioassay: attraction to apple cider vinegar traps; format: in vivo; details: 20 h
Experimental: Two-Choice Bioassay with Drosophila melanogaster: The two-choice assay (N=5) was conducted with an arena design using a dome cage (30 cm W×30 cm L×30 cm H; shop.bugdorm.com) as described in Cha et al. (2012) to evaluate the effect of 2-pentylfuran on D. melanogaster, vinegar fly, attraction to apple cider vinegar, a known attractant. The same gate cup trap design was used as described above in Multiple-Choice Bioassay section. Both traps had 20 ml of apple cider vinegar with soap. […] A cotton ball (3 cm diameter) soaked with distilled water was placed in the center of the arena to provide water to D. melanogaster. . Adult flies (˜50, roughly 1:1 male: female ratio, 7-10 days old) were released in each arena. The number of flies inside treatment and control traps was counted after 20 h.
(§1) Statistical Analyses: Trap catch data from multiple-choice assay and two-choice assay were analyzed in a randomized block design with block as a random factor and different EAD-active compounds as a fixed factor using Poisson distribution with log link function and maximum likelihood estimation (Proc Glimmix, SAS Institute, SAS/STAT 9.2 User's Guide, Second Edition, 2009, SAS Institute Inc., Cary, N.C.). […]

[2] = system: Drosophila suzukii; assay: No-choice oviposition cage experiment: release rate of 2-pentylfuran on raspberry; format: in vivo; details: 2 h
Experimental: Effects of Release Rate of 2-pentylfuran on SWD Oviposition on Raspberry: No Choice Test. Based on the significant effect of 2-pentylfuran using an unknown release rate in the field, to better understand concentration response of SWD to 2-pentylfuran, we evaluated the response of adult SWD to different ranges of 2-pentylfuran release rates in 2 h no choice oviposition cage experiments conducted in the greenhouse (25° C.; natural light; 40-60% r.h.). Cages (60 cm W×60 cm H×180 cm L, BioQuip, Rancho Dominguez, Calif.) were shrouded with a piece of shade cloth (120 cm W×120 cm H×300 cm L). […] Actual release rates from each dispenser used were measured for each assay by recording weight of the dispensers prior and post assay. […] Upon completion of the assay, total number of SWD eggs oviposited into the raspberries was determined with the aid of a dissecting microscope.
as §1

In the case of `CCCCCc1ccco1` [2-pentylfuran], the “effect on D. melanogaster attraction to apple cider vinegar” value ([1]; 2-pentylfuran 10 mg/h sachet in gated trap, N=5) is reported as “significantly reduced”, the “number of D. melanogaster captured in traps baited with apple cider vinegar and 2-pentylfuran” value ([1]; among five replications, 10 mg/h, 50~67 in ACV-only traps) is reported as “one” and the “release rate at which SWD oviposition began to decline relative to control” value ([2]; greenhouse cages, raspberries, N=12) is reported as “around 2.5 mg/h”. For the same molecule, the “reduction in number of eggs laid compared to control” value ([2]; high release rate (5 and 10 mg/h)) was 58%.
